# Data from patent US20230271928A1, “NAPHTHYLUREA COMPOUND, METHODS OF PREPARATION AND USE THEREOF” (Henan Radiomedical Science and Technology Co., Ltd., priority 2021, published 2023).
# Key:
# Type in all cases: cell-based
# HepG2 cells [1] = test: MTT proliferation assay, HepG2
# Experimental: (§1) Difference cell lines HepG2, SMMC-7721, HuH-7, MCF-7, MDA-MB-231, MDA-MB-468, PC9, PC9-AR, PC9-GR, Jurkat and Molt-13 were harvested during log phase; the number of the cells in an original cell suspension was counted; the original cell suspension was diluted to a density of 5×10^4 cells/mL; for a 96-well plate, 100 uL of the cell suspension was transferred to each well; DMSO is used as solvent for negative control; (2E)-3-(6-bromo-2-pyridyl)-2-cyano-N-[(1S)-1-phenylethyl]-2-acrylamide (WP1066CAS: 857064-38-1, with a formula
# (§2) or gefitinib was used as a positive control; the naphthylurea compound ID1120B-1 and the phosphate ID1120B-P thereof were diluted with DMSO and added into the 96-well plate to achieve a final concentration of 0.1, 0.3, 1, 3, 10, 30, 100 and 300 μmol/L in each well; the 96-well plate was incubated for 48 h; 10 μL of MTT solvent (5 mg/mL) was added into each well; the 96-well plate was incubated at 37° C. for 4 h; a culture supernatant was discarded; 150 μL of DMSO was added into each well; the 96-well plate was shaken for 10 min on a plate shaker; an optical density (OD) of the resulting product was measured at a wavelength of 490 nm by an ELISA reader. Test results were recorded. A cell growth curve was drawn with the dosage of each compound as abscissa and the absorbance value as ordinate. The half maximum inhibition rates (IC50 value) of the cancer cells were shown in Table 1, FIGS. 1A-1J and FIGS. 2A-2J.
# SMMC-7721 cells = test: MTT proliferation assay, SMMC-7721; conditions: Homo sapiens; SMMC-7721, MTT, 48 h
# Experimental: as §1, §2
# HuH-7 cells = test: MTT proliferation assay, HuH-7; conditions: Homo sapiens; HuH-7, MTT, 48 h
# Experimental: as §1, §2
# MDA-MB-468 cells = test: MTT proliferation assay, MDA-MB-468; conditions: Homo sapiens, MDA-MB-468, 48 h, MDA-MB-468, MTT
# Experimental: (§3) Test results were recorded. A cell growth curve was drawn with the dosage of each compound as abscissa and the absorbance value as ordinate.
# MDA-MB-231 cells = test: MTT proliferation assay, MDA-MB-231; conditions: Homo sapiens; MDA-MB-231, MTT, 48 h
# Experimental: as §3
# PC9 cells = test: MTT proliferation assay, PC9; conditions: Homo sapiens, PC-9, 48 h
# Experimental: as §3
# PC9GR cells = test: MTT proliferation assay, PC9GR; conditions: 48 h
# Experimental: as §3
# PC9AR cells = test: MTT proliferation assay, PC9AR; conditions: 48 h
# Experimental: as §3
# Jurkat cells = test: MTT proliferation assay, Jurkat; conditions: 48 h
# Experimental: as §1, §2
# MOLT-13 cells = test: MTT proliferation assay, MOLT-13; conditions: MOLT-13, MTT
# Experimental: as §1, §2
# HepG2 cells [2] = test: Cell cycle analysis by PI flow cytometry; conditions: HepG2, 48 h; for induction of cells in the G2/M phase / percentage of cells in the G1/S phase: compared with negative control (DMSO); for length of the G2 phase, % of the cell cycle, after treatment: value reached after treatment (increase from DMSO control value)
# Experimental: HepG2 cells were harvested during log phase, digested, centrifuged and prepared into a single cell suspension; the number of the cells in the single cell suspension was counted; the cells were seeded into a 12-well plate, with 2×10^5 cells per well; three wells were used as a parallel control design; 16 hours after seeding, the cells were treated with the compounds in a concentration gradient for 48 h; the cells were digested with trypsin and resuspended; the number of the cells in the cell suspension was counted and diluted to 5×10^5 cells/mL; after the digestion was completed, the cell suspension was centrifuged; the supernatant was discarded; the pellet was washed twice with PBS (each time the mixture was centrifuged 2000 rpm for 5 min); the supernatant was discarded; a fixative comprising 980 μL of 70% cold ethanol and 20 μL of 5% BSA (a small amount of BSA reduces cellular stress and damage) was added to each microcentrifuge tube, so that the cells were fixed overnight at 4° C.; the fixative is discarded; the cells were washed three times in PBS to remove residual fixative (each time the mixture was centrifuged at 1000 rpm for 3 min); a DNA quantification kit is used to measure the content of DNA according to the following instruction (Suo Laibao, Beijing): each sample was incubated in 100 μL of RNase A at 37° C. for 30 min; 500 μL of PI (propidium iodide) was added to each sample; each sample was incubated at room temperature for 30 min in the dark; the cell cycle was analyzed by a flow cytometry and a ModFit software; and Graphpad prism 6.0 was used to estimate the percentage of a cell population in the different phases of the cell cycle.
# MCF-7 cells = test: MTT proliferation assay, MCF-7; conditions: Homo sapiens, MCF7; MCF-7, MTT, 48 h; read-out: IC50
# Experimental: as §3
# HepG2 liver cancer cells = test: Annexin V-FITC/PI apoptosis flow cytometry; conditions: HepG2, 48 h; for induction of apoptosis: compared with the control group
# Experimental: The HepG2 cells were harvested during log phase, digested, centrifuged and prepared into a single cell suspension; the number of the cells in the cell suspension was counted; the cells were seeded into a 12-well plate, with 2×10^5 cells per well; three wells were used as a parallel control design; 16 hours after seeding, the cells were treated with the compounds in a concentration gradient for 48 h; the cells were digested with EDTA-free trypsin and resuspended; the number of the cells in the cell suspension was counted and diluted to 1×10^6 cells/mL; an annexin V apoptosis detection kit was used according to the following instruction (Suo Laibao, Beijing): the cells were washed twice with 1×PBS (each time the mixture was centrifuged at 6000 rpm for 0.5 min), washed once with 1×Binding buffer (and the mixture was centrifuged at 6000 rpm for 0.5 min); the supernatant was discarded; the cells were resuspended with 300 μL of 1×Binding buffer; 5 μL of Annexin V-FITC was added into each tube, and incubated in the dark for 10 min; 5 μL of PI was added into each tube and incubated in the dark for 5 min; and each tube was then inspected on a machine in the dark.
# [3] = test system: Cyclin B1 (gene name: CCNB1); test: qPCR of mRNA expression, CCNB1; conditions: HepG2, 10 μM, 24 h, normalised to β-actin
# Experimental: (§4) HepG2 liver cancer cells were seeded in a 6-well plate, with 1×10^6 cells per well, and treated with the compound IY1214B-2 (in 0 and 10 μM concentrations) for 24 h; total RNA was extracted from the HepG2 liver cancer cells by a single-step TRIzol method; the concentration and purity of the total RNA was measured; the total RNA was used as a template; and complementary DNA (cDNA) was synthesized from the RNA template according to the instruction of a reverse transcription kit (Promega); sqRT-PCR and qPCR were used to quantify the expression of the genes CCNB1, CDK1 and SQSTM; and the gene ACTB was used as an internal reference gene for gene expression normalization.
# (§5) A 20 μL reaction mix for qPCR contained:
# (§6) Cycling conditions comprised:
# (§7) After 40 cycles, the cycle threaded (CT) value of the β-actin gene was used as an initial value in comparison with the amount of the amplified product.
# CDC2 (gene name: CDK1) = test: qPCR of mRNA expression, CDK1; conditions: HepG2, 10 μM, 24 h, normalised to β-actin
# Experimental: as §4, §5, §6, §7
# p62 (gene name: SQSTM) = test: qPCR of mRNA expression, SQSTM; conditions: HepG2, 10 μM, 24 h, normalised to β-actin
# Experimental: as §4, §5, §6, §7
# [4] = concentration of 8 μL (so in the source)
IC50 (SMMC-7721 cells) [µM],IC50 (HuH-7 cells) [µM],IC50 (MDA-MB-468 cells) [µM],IC50 (MDA-MB-231 cells) [µM],IC50 (PC9 cells) [µM],IC50 (PC9GR cells) [µM],IC50 (PC9AR cells) [µM],IC50 (Jurkat cells; Homo sapiens) [µM],"IC50 (MOLT-13 cells; Homo sapiens, MOLT-13, 48 h) [µM]","IC50 (HepG2 cells [1]; Homo sapiens, HepG2, 48 h) [µM]",IC50 (MCF-7 cells) [µM],Compound,induction of cells in the G2/M phase (HepG2 cells [2]),percentage of cells in the G1/S phase (HepG2 cells [2]),"length of the G2 phase, % of the cell cycle, after treatment (HepG2 cells [2]) [%]",induction of apoptosis (HepG2 liver cancer cells),other results
3.51,3.15,4.92,17.5,14.1,32.3,8,3.23,10.8,,,"O=C(NCc1ccccc1)Nc1ccc(OCc2ccc(OCCN3CCCCC3)cc2)c2ccccc12 [ID1120B-1, 1-benzyl-3-(4-((4-(2-(piperidin-1-yl)ethoxy)benzyl)oxy)naphthalen-1-yl)urea]",dramatically induce the liver cancer cells in the G2/M phase in a dose-dependent manner,significantly decrease the percentage of the liver cancer cells in the G1/S phase,,,IC50 (HepG2 cells [1]; 48 h): 1.68 µM
,,,,,,,,,2.37,,"O=C(NCc1ccccc1)Nc1ccc(OCc2ccc(OCCN3CCCCC3)cc2)c2ccccc12 [ID1120B-P, 1-benzyl-3-(4-((4-(2-(piperidin-1-yl)ethoxy)benzyl)oxy)naphthalen-1-yl)urea phosphate]",,,,,"IC50 (Jurkat cells; phosphate): 4.74 µM; IC50 (MOLT-13 cells; 48 h, phosphate): 9.79 µM"
3.57,2.76,,2.11,,,,,,1.85,3.54,COc1ccc(NC(=O)Nc2ccc(OCc3ccc(OCCN4CCCCC4)cc3)c3ccccc23)cc1 [IY1214A-1],dramatically induce the liver cancer cells in the G2/M phase in a dose-dependent manner,significantly decrease the percentage of the liver cancer cells in the G1/S phase,34.54,induce apoptosis in the HepG2 liver cancer cells in a dose-dependent manner,"apoptosis rate (HepG2 liver cancer cells; 4 μM): 57.7%; apoptosis rate, times higher than that of untreated wells (HepG2 liver cancer cells; 4 μM and 8 μM): more than 2 times; apoptosis rate (HepG2 liver cancer cells; 8 μM): 63%"
31.4,23.1,3.85,,,,,,,3.85,,O=C(Nc1ccc(OC(F)(F)F)cc1)Nc1ccc(OCc2ccc(OCCN3CCCCC3)cc2)c2ccccc12 [IY1214B-2],dramatically induce the liver cancer cells in the G2/M phase in a dose-dependent manner,significantly decrease the percentage of the liver cancer cells in the G1/S phase,21.71,induce apoptosis in the HepG2 liver cancer cells in a dose-dependent manner,"apoptosis rate (HepG2 liver cancer cells; [4]): 47.1%; apoptosis rate, times higher than that of untreated wells (HepG2 liver cancer cells; [4]): 3.3 times; CCNB1 mRNA level down-regulated by [3]: 20-25%; CDK1 mRNA level down-regulated by (CDC2 (gene name: CDK1)): 20-25%; SQSTM (p62) expression level up-regulated by (p62 (gene name: SQSTM)): 2.5 times"
11.9,8.11,13.2,10.2,9.26,14.7,8.49,10,17.1,9.21,18,"C[C@H](NC(=O)/C(C#N)=C/c1cccc(Br)n1)c1ccccc1 [WP1066, (2E)-3-(6-bromo-2-pyridyl)-2-cyano-N-[(1S)-1-phenylethyl]-2-acrylamide, reference compound]",,,,,
